Assay results reported in patent US10093666B2, “Deuterated O-sulfated beta lactam hydroxamic acids and deuterated N-sulfated beta lactams” (ARIXA PHARMACEUTICALS, INC., priority 2016, dated 2018).

What was measured:
[1] = Oral dosing of rats (cassette), plasma concentration vs. time by LC/MS/MS; conditions: for Ratio of b/a: ratio of plasma concentrations b to a (tigemonam), oral
Experimental: (§1) Samples were withdrawn at various time points indicated below and processed using the following procedure. A 50 μL rat plasma sample was transferred to a well of a 96 well-plate, 20 μL of 0.1 ng/μL of Losartan (internal standard) in acetonitrile was added and 300 μL of acetonitrile/formic acid (100/2). The sample was then vortexed and centrifuged at 300 rpm for 5 minutes. Then 200 μL of the supernatant was mixed with 200 μL of double distilled water and was injected (5 μL) on a phenomex Polar-RF 80A column (75×2.0 mm), which was run at 30° C. at a flow rate of 600 μL/minute with a mobile phase A of acetonitrile/formic acid 100/0.02 and a mobile phase B of water/formic acid 100/0.02. The eluate was analyzed by LC/MS/MS (electrospray) to provide the following values of plasma concentration vs. time listed in Table 1, which were then plotted to yield the graph illustrated in FIG. 2.
Each time point above represents a value obtained by averaging the measured plasma concentration of three rats. […] Other compounds may also be tested in the above assay.

[2] = IV dosing of rats (cassette), plasma concentration vs. time by LC/MS/MS; conditions: for Ratio of b/a: ratio of plasma concentrations b to a (tigemonam), rats, IV
Experimental: as §1, with “A cohort of three rats was IV dosed using 2 mg/kg cassette IV dosing. […] Samples” for “Samples”, “Polar-RP” for “Polar-RF”, “100/0.02.” for “100/0.02. The eluate was analyzed by LC/MS/MS (electrospray) to provide the following values of plasma concentration vs. time listed in Table 1, which were then plotted to yield the graph illustrated in FIG. 2.”
Each time point above represents a value obtained by averaging the measured plasma concentration of three rats.

[2H]C([2H])([2H])C1(C([2H])([2H])[2H])[C@H](NC(=O)/C(=N\OCC(=O)O)c2csc(N)n2)C(=O)N1OS(=O)(=O)O [b]
effect of deuteration of tigemonam on oral bioavailability ([1]; rat, in vivo, po): increase | plasma level greater than the plasma level of tigemonam ([1]; rat, in vivo, po, 5 mg/kg): at least 20% | r = b − a ([1]; rat, in vivo, po, 0.167 h): 266 | r = b − a ([1]; rat, in vivo, po, 0.5 h): 694 | r = b − a ([1]; rat, in vivo, po, 1 h): 531 | r = b − a ([1]; rat, in vivo, po, 2 h): 175 | r = b − a ([1]; rat, in vivo, po, 4 h): 55 | r = b − a ([1]; rat, in vivo, po, 6 h): 4 | r = b − a ([1]; rat, in vivo, po, 8 h): 1 | r = b − a ([1]; rat, in vivo, po, 24 h): 0 | Ratio of b/a ([1]; rats, 0.167 hours): 1.19 | Ratio of b/a ([1]; rats, 0.5 hours): 1.24 | Ratio of b/a ([1]; rats, 1 hours): 1.25 | Ratio of b/a ([1]; rats, 2 hours): 1.26 | Ratio of b/a ([1]; rats, 4 hours): 1.48 | Ratio of b/a ([1]; rats, 8 hours): 1.25 | Ratio of b/a ([1]; rats, C6 hours): 1.15 | oral absorption compared with tigemonam ([1]; rats, oral cassette dosing, 5 mg/kg each): increased level | effect of deuteration of tigemonam on IV bioavailability ([2]; rat, in vivo, iv): no effect | plasma levels compared with tigemonam ([2]; rat, in vivo, iv, 1 mg/kg): almost identical | r = b − a ([2]; rat, in vivo, iv, 0.167 h): 235 | r = b − a ([2]; rat, in vivo, iv, 0.5 h): 19 | r = b − a ([2]; rat, in vivo, iv, 1 h): −31 | r = b − a ([2]; rat, in vivo, iv, 2 h): 21 | r = b − a ([2]; rat, in vivo, iv, 4 h): 2 | r = b − a ([2]; rat, in vivo, iv, 6 h): −2 | r = b − a ([2]; rat, in vivo, iv, 8 h): 0 | r = b − a ([2]; rat, in vivo, iv, 24 h): 0 | Ratio of b/a ([2]; 0.167 hours): 1.04 | Ratio of b/a ([2]; 0.5 hours): 1.01 | Ratio of b/a ([2]; 1 hours): .9 | Ratio of b/a ([2]; 2 hours): 1.14 | Ratio of b/a ([2]; 4 hours): 1.06 | Ratio of b/a ([2]; 6 hours): .6
